Source: ChEMBL document CHEMBL1201862, “PubChem BioAssay data set” (2004)
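In this assay, cells in 96-well plates receive the compound at five concentrations for 48 hours. Endpoints are linearly interpolated between the surrounding concentrations. GI50: concentration for 50% inhibition of growth.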 Active and inactive are the calls of the source. No stated cut-off is given here; in the data, active = GI50 up to about 1.1 µM and inactive = higher.

Tests used:
Assay in all cases: NCI-60 cell line screen, 48 h
786-0 = tested on: 786-0
CAKI-1 = tested on: CAKI-1
CCRF-CEM = tested on: CCRF-CEM
K562 = tested on: K562
Malme-3M = tested on: Malme-3M
NCI-H226 = tested on: NCI-H226
NCI-H460 = tested on: NCI-H460
OVCAR-4 = tested on: OVCAR-4
RPMI-8226 = tested on: RPMI-8226
RXF 393 = tested on: RXF 393
SF-268 = tested on: SF-268
SNB-19 = tested on: SNB-19
TK-10 = tested on: TK-10
UACC-62 = tested on: UACC-62
HL-60 = tested on: HL-60
HT-29 = tested on: HT-29
SR = tested on: SR

Row | Compound | GI50 (786-0) | GI50 (CAKI-1) | GI50 (CCRF-CEM) | GI50 (K562) | GI50 (Malme-3M) | GI50 (NCI-H226) | GI50 (NCI-H460) | GI50 (OVCAR-4) | GI50 (RPMI-8226) | GI50 (RXF 393) | GI50 (SF-268) | GI50 (SNB-19) | GI50 (TK-10) | GI50 (UACC-62) | GI50 (HL-60) | GI50 (HT-29) | GI50 (SR)
1 | COC(=O)C(CC(C)=O)CS(=O)(=O)CC(=O)C(=O)Nc1cccc([N+](=O)[O-])c1 (configuration not stated) | > 100 µM (inactive) | > 100 µM (inactive) | > 100 µM (inactive) | > 100 µM (inactive) | > 100 µM (inactive) | > 100 µM (inactive) | > 100 µM (inactive) | > 100 µM (inactive) | > 100 µM (inactive) | > 100 µM (inactive) | > 100 µM (inactive) | > 100 µM (inactive) | > 100 µM (inactive) | > 100 µM (inactive) |  |  | 
2 | CCOC(=O)c1ncn2c1[nH]c(=O)c1ccccc12 | > 100 µM (inactive) |  | > 100 µM (inactive) | > 100 µM (inactive) | > 100 µM (inactive) | > 100 µM (inactive) | > 100 µM (inactive) | > 100 µM (inactive) | > 100 µM (inactive) | > 100 µM (inactive) | > 100 µM (inactive) | > 100 µM (inactive) | > 100 µM (inactive) | > 100 µM (inactive) | > 10 µM (inactive) | > 100 µM (inactive) | > 100 µM (inactive)
3 | Cc1nc2c(n1CC(C)C)C(=O)c1ccccc1C2=O | 55.1 µM (inactive) |  | 38.2 µM (inactive) | 29.9 µM (inactive) | 20.6 µM (inactive) | > 100 µM (inactive) | 23.4 µM (inactive) | 43.4 µM (inactive) |  | 35.2 µM (inactive) | 42.8 µM (inactive) | 51.5 µM (inactive) | > 100 µM (inactive) | 20.7 µM (inactive) | 23 µM (inactive) | 34 µM (inactive) | 41.6 µM (inactive)
4 | CC1=NN=C(NCCN(C)C)C/C1=C/c1ccccc1Cl | > 100 µM (inactive) | 73.5 µM (inactive) |  |  | 27.6 µM (inactive) |  | > 100 µM (inactive) | > 100 µM (inactive) |  | 95.1 µM (inactive) | > 100 µM (inactive) | > 100 µM (inactive) | > 100 µM (inactive) | > 100 µM (inactive) |  | 45.1 µM (inactive) | 
5 | COC(=O)C(CCCC1(c2ccccc2)OCCO1)C(C)=O (configuration not stated) | > 100 µM (inactive) |  | > 100 µM (inactive) | 91.8 µM (inactive) | > 100 µM (inactive) | 40.9 µM (inactive) | > 100 µM (inactive) | > 100 µM (inactive) |  | > 100 µM (inactive) | > 100 µM (inactive) | > 100 µM (inactive) | > 100 µM (inactive) |  | > 100 µM (inactive) | > 100 µM (inactive) | 85.1 µM (inactive)
6 | CC1=C(C(=O)Nc2ccccc2)C(c2ccc([N+](=O)[O-])cc2)C(C(=O)Nc2ccccc2)=C(C)N1 | 19.8 µM (inactive) |  | 10.3 µM (inactive) | 15.4 µM (inactive) | 34.2 µM (inactive) | 59.6 µM (inactive) | 21.1 µM (inactive) |  | 15.2 µM (inactive) | 17.6 µM (inactive) | 22.6 µM (inactive) | 10.4 µM (inactive) | 28.7 µM (inactive) | 12.2 µM (inactive) | 13.1 µM (inactive) | 18.2 µM (inactive) | 18.4 µM (inactive)
7 | Cc1cc2c(cc1C)[n+]([O-])c(-c1c(Cl)cccc1Cl)c(N)[n+]2[O-] | 52 µM (inactive) | 31 µM (inactive) |  | 32 µM (inactive) | 31.1 µM (inactive) | 23.9 µM (inactive) | 30.3 µM (inactive) | 39 µM (inactive) | 67.5 µM (inactive) |  | 32.9 µM (inactive) | 25.5 µM (inactive) | > 100 µM (inactive) | 23.2 µM (inactive) | 26 µM (inactive) | 39.6 µM (inactive) | 
8 | Cc1ccc(C)c(N2C(=O)C(=O)C(c3nc4ccccc4o3)/C(=N/N)C2=O)c1 (configuration not stated) | > 100 µM (inactive) | > 100 µM (inactive) | > 100 µM (inactive) |  | > 100 µM (inactive) | > 100 µM (inactive) | > 100 µM (inactive) | > 100 µM (inactive) |  | > 100 µM (inactive) | > 100 µM (inactive) | > 100 µM (inactive) | > 100 µM (inactive) | > 100 µM (inactive) | > 100 µM (inactive) | > 100 µM (inactive) | > 100 µM (inactive)
9 | Nc1nc(N)c(N=O)c(Nc2ccc(Br)cc2)n1 | 28.7 µM (inactive) | 29.4 µM (inactive) | 18.2 µM (inactive) | > 100 µM (inactive) | 13.3 µM (inactive) | 32.2 µM (inactive) | 26.5 µM (inactive) | 48 µM (inactive) |  |  | 12.9 µM (inactive) | 45.1 µM (inactive) | 29.1 µM (inactive) | 5.5 µM (inactive) | > 100 µM (inactive) | 15.8 µM (inactive) | > 100 µM (inactive)
10 | COc1ccc(/C=C/C(=O)c2c(-c3ccccc3)nn(C)c(=O)c2N2CC2C)cc1 (configuration not stated) | 36.4 µM (inactive) | 44.5 µM (inactive) | 22.9 µM (inactive) | 26.2 µM (inactive) | 35.7 µM (inactive) | 45.3 µM (inactive) | 27.5 µM (inactive) | 27.9 µM (inactive) |  | 27.9 µM (inactive) | 26.8 µM (inactive) | 37.8 µM (inactive) | 41.1 µM (inactive) | 19 µM (inactive) | 17.5 µM (inactive) | 32.4 µM (inactive) | 
11 | CCN(CC)CC(C(=O)Nc1c(C)cccc1C)/C(C)=N/NC(N)=S (configuration not stated) | > 100 µM (inactive) |  | > 100 µM (inactive) | > 100 µM (inactive) | > 100 µM (inactive) | > 100 µM (inactive) | > 100 µM (inactive) |  | > 100 µM (inactive) | > 100 µM (inactive) | > 100 µM (inactive) |  | > 100 µM (inactive) | > 100 µM (inactive) | > 100 µM (inactive) | > 100 µM (inactive) | 
12 | CCOC(=O)NC(=O)c1cn(CCN2CCN(C(=O)NCCCCCCNC(=O)N3CCN(CCn4cc(C(=O)NC(=O)OCC)c(=O)[nH]c4=O)CC3)CC2)c(=O)[nH]c1=O | > 100 µM (inactive) |  |  | > 100 µM (inactive) | > 100 µM (inactive) |  | > 100 µM (inactive) | > 100 µM (inactive) | > 100 µM (inactive) | > 100 µM (inactive) | > 100 µM (inactive) | > 100 µM (inactive) | > 100 µM (inactive) | > 100 µM (inactive) | > 100 µM (inactive) | > 100 µM (inactive) | > 100 µM (inactive)
13 | OC(c1ccccn1)C1CNc2ccccc21 (configuration not stated) | > 100 µM (inactive) | > 100 µM (inactive) | > 100 µM (inactive) | > 100 µM (inactive) | > 100 µM (inactive) | > 100 µM (inactive) | > 100 µM (inactive) | > 100 µM (inactive) | > 100 µM (inactive) | > 100 µM (inactive) | > 100 µM (inactive) | > 100 µM (inactive) | > 100 µM (inactive) | > 100 µM (inactive) | > 100 µM (inactive) | > 100 µM (inactive) | 
14 | C/C=C(/I)CBr | 17 µM (inactive) | 1.07 µM (active) | 3.78 µM (inactive) | 5.15 µM (inactive) | 16 µM (inactive) | 20.6 µM (inactive) | 18.9 µM (inactive) | 17.3 µM (inactive) | 10.4 µM (inactive) | 17.3 µM (inactive) | 23.6 µM (inactive) | 23.7 µM (inactive) | > 10 µM (inactive) | 15.5 µM (inactive) | 4.49 µM (inactive) |  | 
